From PubChem BioAssay (NCI)
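Briefly, cells in 96-well plates were exposed to five compound concentrations for 48 h, and endpoints were estimated by linear interpolation. GI50 is the concentration that inhibits growth by half. TGI is the concentration that stops growth completely.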

Tests used:
Assay in all cases: NCI-60 cell line screen, 48 h
HT29 colon = test system: HT29 colon
M14 melanoma = test system: M14 melanoma
ACHN renal = test system: ACHN renal
HL-60(TB) leukemia = test system: HL-60(TB) leukemia
HCT-15 colon = test system: HCT-15 colon
OVCAR-8 ovarian = test system: OVCAR-8 ovarian
UO-31 renal = test system: UO-31 renal
T-47D breast = test system: T-47D breast
SW-620 colon = test system: SW-620 colon
MDA-N = test system: MDA-N

Row | SMILES | TGI (HT29 colon) [µM] | TGI (M14 melanoma) [µM] | TGI (ACHN renal) [µM] | TGI (HL-60(TB) leukemia) [µM] | TGI (HCT-15 colon) [µM] | TGI (OVCAR-8 ovarian) [µM] | TGI (UO-31 renal) [µM] | TGI (T-47D breast) [µM] | TGI (SW-620 colon) [µM] | TGI (MDA-N) [µM] | GI50 (HT29 colon) [µM] | GI50 (M14 melanoma) [µM] | GI50 (ACHN renal) [µM] | GI50 (HL-60(TB) leukemia) [µM] | GI50 (HCT-15 colon) [µM] | GI50 (OVCAR-8 ovarian) [µM] | GI50 (UO-31 renal) [µM] | GI50 (T-47D breast) [µM] | GI50 (SW-620 colon) [µM]
1 | Cn1c(CO)ccc1-c1ccc(-c2ccc(CO)[se]2)[se]1 | > 100 | > 73.8 | > 75.3 | > 59.1 | > 70.6 | 55.6 | > 100 | > 100 | > 100 |  |  |  |  |  |  |  |  |  | 
2 | Cc1ccc(S(=O)(=O)N/N=c2/sc3ccccc3n2C)cc1 | > 100 |  | > 100 | > 100 | > 100 | > 100 | > 100 | > 100 | > 100 |  |  |  |  |  |  |  |  |  | 
3 | CC(=O)OC12c3ccccc3C(c3ccccc31)C1C(=O)N(N=C(C)C)C(=O)C12 (centres undefined) | > 100 | > 100 |  | > 100 | > 100 | > 100 | > 100 | > 100 | > 100 | > 100 |  |  |  |  |  |  |  |  | 
4 | C[n+]1c2ccccc2n2c3ccccc3c(NCCCn3ccnc3)c(C#N)c21 | 37.9 | 5.23 | > 27.7 | 20.3 | 12 | 8.43 | 42.6 | > 19.6 |  | 9.82 |  |  |  |  |  |  |  |  | 
5 | COc1ccc(/C(C=O)=C(\Cl)c2ccc(OC)c(OC)c2)cc1 | > 100 | > 100 | > 100 | > 100 | > 100 | > 100 | > 100 |  | > 100 |  |  |  |  |  |  |  |  |  | 
6 | CC(C)=CC1C(C(=O)OCc2cc3c(cc2Cl)OCO3)C1(C)C (centres undefined) | > 100 | > 100 | > 100 |  | > 100 | > 100 | > 100 | > 100 | > 100 | 81.5 |  |  |  |  |  |  |  |  | 
7 | Cc1cccc2c1nc1n2C(=O)c2ccccc2-1 | > 100 | > 100 | > 100 | > 100 | > 100 | > 100 | > 100 |  | > 100 | > 100 |  |  |  |  |  |  |  |  | 
8 | COC(=O)CCC(C)[C@H]1CCC2C3CC[C@@H]4CC5(CC[C@]4(C)C3C[C@H](OC(C)=O)[C@@]21C)OOC1(CCCCC1)OO5 (some centres undefined) | > 100 | > 100 | > 100 | 8.89 | > 100 | > 100 | 9.04 | 50 |  | 35 |  |  |  |  |  |  |  |  | 
9 | CCOC(=O)CNC(=O)c1[nH]cnc1/N=N/N(C)C | > 100 | > 100 | > 100 | > 100 | > 100 | > 100 | > 100 |  | > 100 |  |  |  |  |  |  |  |  |  | 
10 | CCCCCCCCCCCCOCC(COP(=O)(O)OCCN=[N+]=[N-])OC(=O)CCCCCCCCCCC (centres undefined) | > 100 | > 100 | > 100 |  | > 100 | > 100 | > 100 | > 100 | > 100 | > 100 |  |  |  |  |  |  |  |  | 
11 | COc1cc2c(cc1O)NC(=O)[C@@H]1C[C@@H](O)CN1C2=O | > 100 | > 100 | > 100 |  | > 100 | > 100 | > 100 | > 100 | > 100 |  |  |  |  |  |  |  |  |  | 
12 | NC(=O)CSc1nc2ccccc2c(=O)n1N | > 100 | > 100 | > 100 |  | > 100 | > 100 | > 100 | > 100 | > 100 | > 100 |  |  |  |  |  |  |  |  | 
13 | COC(=O)[C@H](C)NC(=O)[C@H](NS(=O)(=O)c1nc2ccccc2s1)c1ccccc1 | > 100 | 22.9 | > 100 | > 100 | > 100 | 33.7 | 35.8 | 32.4 | > 100 |  |  |  |  |  |  |  |  |  | 
14 | Cc1n[nH]c(=O)n1-n1cccc1 | > 100 | > 100 | > 100 |  | > 100 | > 100 | > 100 | > 100 | > 100 | > 100 |  |  |  |  |  |  |  |  | 
15 | CCOC(=O)C(Cc1ccc(N=NN(C)C)cc1)NC(=O)CC1c2ccccc2-c2ccccc21 (centres undefined) | > 100 | > 100 | > 100 | > 100 | > 100 | > 100 | > 100 |  | > 100 |  |  |  |  |  |  |  |  |  | 
16 | CCOC(=O)C1C(c2ccc(Br)cc2)N(Cc2ccccc2)C(c2ccc(Br)cc2)C(C(=O)OC)S1(=O)=O (centres undefined) | > 100 | > 100 | > 100 | > 100 | > 100 | 84.6 | > 100 |  | > 100 |  |  |  |  |  |  |  |  |  | 
17 | O=c1c2[nH]cnc2n(-c2ccccc2)c(=S)n1-c1ccccc1 | > 100 | > 100 | > 100 | > 100 | > 100 | > 100 | > 100 | > 100 | > 100 |  |  |  |  |  |  |  |  |  | 
18 | BrC1(c2ccccc2)C[n+]2c(-c3ccccc3)cc(-c3ccccc3)cc2-c2ccccc21 (centres undefined) | 3.46 | 15.5 | 14 | 0.538 | 12 | 6.37 | 3.31 |  | 11.4 | 1.69 |  |  |  |  |  |  |  |  | 
19 | C=CCOC(C)(C)C1=CCC(C)CC1 (centres undefined) | > 100 | > 100 | > 100 | > 100 | > 100 | > 100 | > 100 |  | > 100 | > 100 |  |  |  |  |  |  |  |  | 
20 | O=[N+]([O-])/C=C/c1cc(Cl)c(/C=C/[N+](=O)[O-])cc1Cl | 5.78 | 4.37 | 2.97 |  | 4.19 |  |  | 6.38 | 6.06 | 8.19 |  |  |  |  |  |  |  |  | 
21 | O=C(Nc1ccc(-n2cc(-c3ccncc3)c(-c3ccc(O)c(Cl)c3)n2)cc1)Nc1cc(C(F)(F)F)cc(C(F)(F)F)c1 | 22.7 | 13.6 | 11.7 | 8.09 | 12.6 | 11.7 | 12.6 | 10.7 | 22 |  | 8.94 | 3.6 | 3.24 | 2.98 | 3.36 | 3.44 | 1.94 | 3.28 | 5.93
22 | CC(C)CNP(=O)(NCC(C)C)Oc1ccc(CC(NC(=O)OCc2ccccc2)C(=O)OCc2ccccc2)cc1 (centres undefined) | 33.4 | 67.7 | 30.6 |  | 89.6 | 32.7 | 39 | 33.5 | 40.2 | 36 |  |  |  |  |  |  |  |  | 
